ChEMBL document CHEMBL1201862, “PubChem BioAssay data set” (2004)
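Method: 48-hour compound exposure of cells in 96-well plates, five concentrations, linear interpolation of endpoints. Here, GI50 denotes the concentration required for 50% inhibition of growth.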 Activity calls are given as the source filed them. Cut-off read from the data, not from the text of the source: active = GI50 up to about 1.1 µM and inactive = higher.

Assays:
Test in all cases: DTP human tumour cell line panel, 48 h
COLO 205 = tested on: COLO 205
OVCAR-8 = tested on: OVCAR-8
OVCAR-3 = tested on: OVCAR-3
RPMI-8226 = tested on: RPMI-8226
Malme-3M = tested on: Malme-3M
KM12 = tested on: KM12
SN12C = tested on: SN12C
OVCAR-5 = tested on: OVCAR-5
UACC-257 = tested on: UACC-257
SK-MEL-28 = tested on: SK-MEL-28
ACHN = tested on: ACHN
UO-31 = tested on: UO-31
RXF 393 = tested on: RXF 393
K562 = tested on: K562
SK-OV-3 = tested on: SK-OV-3
Hs-578T = tested on: Hs-578T
NCI/ADR-RES = tested on: NCI/ADR-RES
NCI-H226 = tested on: NCI-H226
NCI-H522 = tested on: NCI-H522
SW-620 = tested on: SW-620
MOLT-4 = tested on: MOLT-4
786-0 = tested on: 786-0
SK-MEL-2 = tested on: SK-MEL-2
CAKI-1 = tested on: CAKI-1
HCC 2998 = tested on: HCC 2998
MDA-N = tested on: MDA-N
M14 = tested on: M14
SNB-75 = tested on: SNB-75
U-251 = tested on: U-251
SF-539 = tested on: SF-539
HOP-62 = tested on: HOP-62
EKVX = tested on: EKVX
TK-10 = tested on: TK-10
PC-3 = tested on: PC-3
DU-145 = tested on: DU-145
IGROV-1 = tested on: IGROV-1
SNB-19 = tested on: SNB-19
HT-29 = tested on: HT-29
SF-268 = tested on: SF-268
MCF7 = tested on: MCF7
UACC-62 = tested on: UACC-62
SK-MEL-5 = tested on: SK-MEL-5
NCI-H460 = tested on: NCI-H460
HOP-92 = tested on: HOP-92
SR = tested on: SR
HCT-15 = tested on: HCT-15
MDA-MB-435 = tested on: MDA-MB-435
A549 = tested on: A549
NCI-H23 = tested on: NCI-H23
SF-295 = tested on: SF-295
BT-549 = tested on: BT-549
LOX IMVI = tested on: LOX IMVI
OVCAR-4 = tested on: OVCAR-4
CCRF-CEM = tested on: CCRF-CEM
MDA-MB-231 = tested on: MDA-MB-231
T47D = tested on: T47D
HCT-116 = tested on: HCT-116
HL-60 = tested on: HL-60
A498 = tested on: A498

Q: With `O=C(NCC(C(=O)OCc1ccccc1)C(=O)OCc1ccccc1)OCc1ccccc1` as the molecule, how does the GI50 (COLO 205) read?
A: The GI50 was > 100 µM (inactive).

Q: What about the GI50 (OVCAR-8) of the same molecule?
A: Its GI50 is > 100 µM (inactive).

Q: And the GI50 (OVCAR-3)?
A: Its GI50 is > 100 µM (inactive).

Q: And the GI50 (RPMI-8226)?
A: Its GI50 is > 100 µM (inactive).

Q: What about the GI50 (Malme-3M) of the same molecule?
A: The GI50 was > 100 µM (inactive).

Q: And the GI50 (KM12)?
A: The GI50 was > 100 µM (inactive).

Q: What about the GI50 (SN12C) of the same molecule?
A: Its GI50 is > 100 µM (inactive).

Q: What about the GI50 (OVCAR-5) of the same molecule?
A: Its GI50 is > 100 µM (inactive).

Q: And the GI50 (UACC-257)?
A: Its GI50 is > 100 µM (inactive).

Q: And the GI50 (SK-MEL-28)?
A: The GI50 was > 100 µM (inactive).

Q: And the GI50 (ACHN)?
A: Its GI50 is > 100 µM (inactive).

Q: What about the GI50 (UO-31) of the same molecule?
A: The GI50 was 47.9 µM (inactive).

Q: And the GI50 (RXF 393)?
A: Its GI50 is 77.4 µM (inactive).

Q: And the GI50 (K562)?
A: The GI50 was 60.1 µM (inactive).

Q: What about the GI50 (SK-OV-3) of the same molecule?
A: The GI50 was > 100 µM (inactive).

Q: And the GI50 (Hs-578T)?
A: Its GI50 is > 100 µM (inactive).

Q: What about the GI50 (NCI/ADR-RES) of the same molecule?
A: Its GI50 is 42.6 µM (inactive).

Q: What about the GI50 (NCI-H226) of the same molecule?
A: The GI50 was 50.4 µM (inactive).

Q: And the GI50 (NCI-H522)?
A: The GI50 was 72.6 µM (inactive).

Q: And the GI50 (SW-620)?
A: Its GI50 is > 100 µM (inactive).

Q: And the GI50 (MOLT-4)?
A: Its GI50 is 19.2 µM (inactive).

Q: What about the GI50 (786-0) of the same molecule?
A: The GI50 was > 100 µM (inactive).

Q: And the GI50 (SK-MEL-2)?
A: The GI50 was > 100 µM (inactive).

Q: And the GI50 (CAKI-1)?
A: The GI50 was > 100 µM (inactive).

Q: And the GI50 (HCC 2998)?
A: Its GI50 is > 100 µM (inactive).

Q: What about the GI50 (MDA-N) of the same molecule?
A: Its GI50 is > 100 µM (inactive).

Q: And the GI50 (M14)?
A: Its GI50 is > 100 µM (inactive).

Q: What about the GI50 (SNB-75) of the same molecule?
A: The GI50 was > 100 µM (inactive).

Q: And the GI50 (U-251)?
A: Its GI50 is 85.7 µM (inactive).

Q: What about the GI50 (SF-539) of the same molecule?
A: Its GI50 is > 100 µM (inactive).

Q: And the GI50 (HOP-62)?
A: Its GI50 is > 100 µM (inactive).

Q: And the GI50 (EKVX)?
A: The GI50 was 72.3 µM (inactive).

Q: What about the GI50 (TK-10) of the same molecule?
A: Its GI50 is > 100 µM (inactive).

Q: And the GI50 (PC-3)?
A: The GI50 was 35.4 µM (inactive).

Q: And the GI50 (DU-145)?
A: Its GI50 is > 100 µM (inactive).

Q: And the GI50 (IGROV-1)?
A: The GI50 was > 100 µM (inactive).

Q: And the GI50 (SNB-19)?
A: Its GI50 is > 100 µM (inactive).

Q: What about the GI50 (HT-29) of the same molecule?
A: The GI50 was > 100 µM (inactive).

Q: And the GI50 (SF-268)?
A: The GI50 was > 100 µM (inactive).

Q: What about the GI50 (MCF7) of the same molecule?
A: Its GI50 is 49.3 µM (inactive).

Q: And the GI50 (UACC-62)?
A: Its GI50 is > 100 µM (inactive).

Q: What about the GI50 (SK-MEL-5) of the same molecule?
A: Its GI50 is 35.9 µM (inactive).

Q: What about the GI50 (NCI-H460) of the same molecule?
A: The GI50 was 94.6 µM (inactive).

Q: And the GI50 (HOP-92)?
A: Its GI50 is > 100 µM (inactive).

Q: What about the GI50 (SR) of the same molecule?
A: Its GI50 is 37.9 µM (inactive).

Q: What about the GI50 (HCT-15) of the same molecule?
A: The GI50 was > 100 µM.

Q: And the GI50 (MDA-MB-435)?
A: Its GI50 is > 100 µM (inactive).

Q: What about the GI50 (A549) of the same molecule?
A: Its GI50 is 63.8 µM (inactive).

Q: What about the GI50 (NCI-H23) of the same molecule?
A: The GI50 was 59.3 µM (inactive).

Q: And the GI50 (SF-295)?
A: Its GI50 is > 100 µM (inactive).

Q: And the GI50 (BT-549)?
A: The GI50 was 38.8 µM (inactive).

Q: Which results are given for `O=c1c2c3c(sc2nc2n1N=C(c1ccc(Br)cc1)CS2)CCCC3`?
A: GI50 (COLO 205): > 100 µM (inactive); GI50 (LOX IMVI): > 100 µM (inactive); GI50 (OVCAR-8): > 100 µM (inactive); GI50 (OVCAR-3): > 100 µM (inactive); GI50 (OVCAR-4): > 100 µM (inactive); GI50 (Malme-3M): > 100 µM (inactive); GI50 (KM12): > 100 µM (inactive); GI50 (CCRF-CEM): > 100 µM (inactive); GI50 (SN12C): > 100 µM (inactive); GI50 (OVCAR-5): > 100 µM (inactive); GI50 (UACC-257): > 100 µM (inactive); GI50 (SK-MEL-28): > 100 µM (inactive); GI50 (ACHN): > 100 µM (inactive); GI50 (UO-31): > 100 µM (inactive); GI50 (RXF 393): > 100 µM (inactive); GI50 (K562): > 100 µM (inactive); GI50 (SK-OV-3): > 100 µM (inactive); GI50 (NCI/ADR-RES): > 100 µM (inactive); GI50 (MDA-MB-231): > 100 µM (inactive); GI50 (NCI-H226): > 100 µM (inactive); GI50 (T47D): > 100 µM (inactive); GI50 (NCI-H522): > 100 µM (inactive); GI50 (SW-620): > 100 µM (inactive); GI50 (MOLT-4): > 100 µM (inactive); GI50 (HCT-116): > 100 µM (inactive); GI50 (786-0): > 100 µM (inactive); GI50 (CAKI-1): > 100 µM (inactive); GI50 (HCC 2998): > 100 µM (inactive); GI50 (MDA-N): > 100 µM (inactive); GI50 (M14): > 100 µM (inactive); GI50 (HL-60): > 100 µM (inactive); GI50 (SNB-75): > 100 µM (inactive); GI50 (U-251): > 100 µM (inactive); GI50 (SF-539): > 100 µM (inactive); GI50 (HOP-62): > 100 µM (inactive); GI50 (A498): > 100 µM (inactive); GI50 (EKVX): > 100 µM (inactive); GI50 (TK-10): > 100 µM (inactive); GI50 (PC-3): > 100 µM (inactive); GI50 (DU-145): > 100 µM (inactive); GI50 (IGROV-1): > 100 µM (inactive); GI50 (SNB-19): > 100 µM (inactive); GI50 (HT-29): > 100 µM (inactive); GI50 (SF-268): > 100 µM (inactive); GI50 (MCF7): > 100 µM (inactive); GI50 (UACC-62): > 100 µM (inactive); GI50 (NCI-H460): > 100 µM (inactive); GI50 (HOP-92): > 100 µM (inactive); GI50 (SR): > 100 µM (inactive); GI50 (HCT-15): > 100 µM; GI50 (MDA-MB-435): > 100 µM (inactive); GI50 (A549): > 100 µM (inactive); GI50 (NCI-H23): > 100 µM (inactive); GI50 (SF-295): > 100 µM (inactive); GI50 (BT-549): > 100 µM (inactive)

Q: What does the source list for `COc1cc(O)c2c(=O)c(OC)c(-c3ccc(OC)c(OC)c3)oc2c1.[Zn+2]`?
A: GI50 (RPMI-8226): 57.9 µM (inactive); GI50 (SN12C): 61.2 µM (inactive); GI50 (RXF 393): 5.81 µM (inactive); GI50 (SK-OV-3): 5.12 µM (inactive); GI50 (Hs-578T): 2.67 µM (inactive); GI50 (NCI-H226): 54.8 µM (inactive); GI50 (NCI-H522): 4.38 µM (inactive); GI50 (786-0): 10.4 µM (inactive); GI50 (CAKI-1): 11.2 µM (inactive); GI50 (MDA-N): > 100 µM (inactive); GI50 (HL-60): > 100 µM (inactive); GI50 (SNB-75): 1.75 µM (inactive); GI50 (SF-539): 20.8 µM (inactive); GI50 (TK-10): 66.1 µM (inactive); GI50 (NCI-H460): 17.1 µM (inactive); GI50 (A549): 53.2 µM (inactive); GI50 (BT-549): 17.8 µM (inactive)
